What was measured:
[1] = tested on: M-HeLa; assay: MTT cell viability test, M-HeLa; format: cell-based, human; conditions: for IC50: Homo sapiens, M-HeLa, incubation time 24 h; for selectivity (SI) for M-HeLa: IC50 normal cells (WI38) / IC50 M-HeLa
Experimental: (§1) Human cell cultures of tumor origin—HeLa (cervical tumor), HuTu 80 (human duodenal adenocarcinoma), ChangLiver (human liver HeLa-like line), and normal cell line WI38, VA 13 subline 2RA is a diploid human cell strain composed of fibroblasts derived from healthy lung tissue provided by The Gamaleya National Center for Epidemiology and Microbiology, as well as the Institute of Cytology of the Russian Academy of Sciences. They were grown in a nutrient medium DMEM (PanEco, Moscow, Russia) and MEM (PanEco, Moscow, Russia), containing fetal bovine serum (10% by volume) (ThermoFisher Scientific, Paisley, UK), Glutamax (2 mM) (Gibco, Scotland, UK), and penicillin-streptomycin (1% by volume) (PanEco, Moscow, Russia). The cultivation was carried out at 37 °C in a humidified CO2 atmosphere (5%).
(§2) Cell viability was determined by the MTT test. Cells were seeded in a 96-well plate in the amount of 1 × 10^4 cells/200 µL of complete nutrient medium and cultured at 37 °C in CO2 (5%). After 24 h of incubation, various concentrations of test compounds in the range of 0.1 to 100 μM were added to the cell cultures, and then the cells were cultured under the same conditions for 24 and 72 h. For each concentration, the experiment was carried out in triplicate.
(§3) All compounds were dissolved in DMSO and then diluted with the medium to the required concentration. […] The DMSO was also added to the control wells in a volume of 1%. After the incubation time, MTT (3-(4,5-dimethylthiazol-2-yl)-2,5-diphenyltetrazolium bromide, 5 mg/mL) was added to each well, and plates were additionally incubated for 2 h (until the characteristic color appeared).
(§4) Using a plate analyzer (Cytation3, BioTech Instruments Inc., Winooski, VT, USA), the optical density was determined at 530 nm.
(§5) The IC50 parameter was calculated using the AAT Bioquest program.
(§6) The selectivity index (SI) is calculated as the ratio between the IC50 for normal cells and the IC50 for cancer cells.

[2] = tested on: HuTu 80 cells; assay: Mitochondrial membrane potential, JC-10 flow cytometry; format: cell-based, human; conditions: 24 h; concentrations corresponding to IC50
Experimental: To analyze the effect of compounds on changes in the mitochondrial membrane potential, we performed flow cytometry using JC-10 fluorescent dye (in the Mitochondria Membrane Potential Kit). In normal cells (with high membrane potential), JC-10 accumulates in the mitochondrial matrix, where it forms aggregates with red fluorescence. However, in apoptotic cells, JC-10 diffuses out of mitochondria, converts to its monomeric form, and emits green fluorescence, which is recorded by a flow cytometer. Cells were harvested at 2757 g for 5 min and then washed twice with ice-cold PBS, followed by resuspension in JC-10 (10 µg/mL) and incubation at 37 °C for 10 min. Then, the cells were rinsed three times and suspended in PBS, and the JC-10 fluorescence was observed by flow cytometry (Guava easyCyte, Merck, Rahway, NJ, USA).

[3] = tested on: platelet aggregation; assay: Platelet aggregation, Born method; format: cell-based, human; conditions: for reduction of the maximum platelet aggregation, on average: text summary for 3a and 3b
Experimental: The in vitro experiments were performed using the blood of healthy male donors aged 18-24 years (a total of 54 donors). This study was approved by the Ethics Committee of the Federal State Budgetary Educational Institution of Higher Education at the Bashkir State Medical University of the Ministry of Health of the Russian Federation (No. 2, dated 17 October 2012). Informed consent was obtained from all participants before blood sampling. The blood was collected from the cubital vein using the vacuum blood collection system BD Vacutainer® (Becton, Dickinson, and Company, Franklin Lakes, NJ, USA). […] The study of the effect on platelet aggregation was performed using the Born method using the aggregometer «[…], Moscow, Russia). The assessment of the antiplatelet activity of the studied compounds and reference preparations was started with a final concentration of 2 × 10^-3 mol/L. Adenosine diphosphate (ADP; 20 μg/mL) and collagen (5 mg/mL) manufactured by […] Company, Barnaul, Russia, were used as inducers of aggregation. The study on the anticoagulant activity was performed by standard recognized clotting tests using the optical two-channel automatic analyzer of blood coagulation, Solar […] SOLAR, Minsk, Belarus). The following parameters were studied: activated partial thromboplastin time (APTT), prothrombin time (PT), and fibrinogen concentrations according to the Clauss method. The determination of the anticoagulant activity of the studied compounds and reference preparation was performed at a concentration of 5 × 10^-4 g/mL using the reagents manufactured by […] Company (Barnaul, Russia). The results of the study were processed using the statistical package Statistica 10.0 (StatSoft Inc., Tulsa, OK, USA). The Shapiro-Wilk's test was used to check the normality of the [NT] distribution. The form of distribution of the data obtained differed from the normal one; therefore, non-parametric methods were used for further analysis. The data were presented as medians and 25 and 75 percentiles. An analysis of variance was conducted using the Kruskal-Wallis test.

[4] = tested on: HuTu 80; assay: MTT cell viability test, HuTu 80; format: cell-based, human; conditions: for IC50: Homo sapiens, HuTu80, incubation time 24 h; for selectivity (SI) for HuTu 80: IC50 normal cells (WI38) / IC50 HuTu 80
Experimental: as §1, §2, §3, §4, §5, §6

[5] = tested on: HuTu 80 cells; assay: Apoptosis induction, annexin V/propidium iodide flow cytometry; format: cell-based, human; conditions: 24 h; IC50 concentration of 40 μM
Experimental: HuTu 80 cells at 1 × 10^6 cells/well in a final volume of 2 mL were seeded into six-well plates. After 24 h of incubation, various concentrations of tested compounds were added to the wells. The cells were harvested at 2757 g for 5 min and then washed twice with ice-cold PBS, followed by resuspension in binding buffer. Next, the samples were incubated with 5 μL of annexin V-Alexa Fluor 647 (Sigma-Aldrich, Burlington, MA, USA) and 5 μL of propidium iodide for 15 min at room temperature in the dark. Finally, the cells were analyzed by flow cytometry (Guava easyCyte, Merck, Rahway, NJ, USA) within 1 h. The experiments were repeated three times.

[6] = tested on: Chang Liver; assay: MTT cell viability test, Chang liver; format: cell-based; conditions: Homo sapiens, incubation time 24 h
Experimental: as §1, §2, §3, §4, §5

[7] = tested on: WI38; assay: MTT cell viability test, WI38; format: cell-based, human; conditions: for IC50: Homo sapiens, WI-38, incubation time 24 h
Experimental: as §1, §2, §3, §4, §5

[8] = tested on: HuTu 80 cells; assay: ROS production, CellROX Deep Red flow cytometry; format: cell-based, human
Experimental: ROS generation was investigated using a flow cytometry assay and the CellROX® Deep Red flow cytometry kit. For this, HuTu 80 cells were harvested at 2000 rpm for 5 min and then washed twice with ice-cold PBS, followed by resuspension in 0.1 mL of medium without FBS, to which was added 0.2 μL of CellROX® Deep Red and incubated at 37 °C for 30 min. After three times washing the cells and suspending them in PBS, the production of ROS in the cells was immediately monitored using a flow cytometer (Guava easyCyte, Merck, Rahway, NJ, USA).

Compound	IC50 [1]	selectivity (SI) for M-HeLa [1]	cytotoxicity, times higher than the reference drug 5-FU ([1]; cell line not given)	green fluorescence increased relative to the control [2]	lengthening of the lag-period relative to the control [3]	reduction of the maximum platelet aggregation, on average [3]	IC50 [4]	selectivity (SI) for HuTu 80 [4]	apoptosis-inducing activity [5]	IC50 [6]	cytotoxicity against the healthy cell line WI38 [7]	IC50 [7]	ROS production relative to the control [8]	increase in ROS production relative to the control ([8]; 12.5 µM)	increase in ROS production relative to the control ([8]; 25 µM)
O=C1C(=O)N(Cc2ccccc2Cl)c2ccc(F)cc21 [Compound 3b, 1-(2-Chlorobenzyl)-5-fluoroindoline-2,3-dione]	32.1 ± 2.5 µM	1.8	2.0 times	up to 55%	more than 10%	~12%	38.3 ± 3 µM	1.5	highest apoptosis-inducing activity	71.5 ± 5.6 µM	low cytotoxicity	58.1 ± 6.6 µM	increased ROS production	–	–
O=C1C(=O)N(Cc2ccccc2F)c2ccc(F)cc21 [Compound 3a, 5-Fluoro-1-(2-fluorobenzyl)indoline-2,3-dione]	74.6 ± 5.9 µM	–	–	–	more than 10%	~12%	25.2 ± 1.9 µM	2.5	–	53 ± 4.2 µM	low cytotoxicity	62 ± 2 µM	–	1.1 fold	7.1 times
O=c1[nH]cc(F)c(=O)[nH]1 [Compound 5-FU, 5-fluorouracil, reference compound]	62 ± 4.9 µM	≤ 1	–	–	–	–	–	≤ 1	–	19 ± 1.7 µM	–	62 ± 4.2 µM	–	–	–
O=C1C(=O)N(Cc2c(F)cccc2Cl)c2ccc(F)cc21 [Compound 3d, 1-(2-Chloro-6-fluorobenzyl)-5-fluoroindoline-2,3-dione]	53.8 ± 4.3 µM	1.5	–	up to 55%	–	–	31 ± 2.4 µM	2.5	–	> 100 µM	low cytotoxicity	78.3 ± 8 µM	increased ROS production	–	–
